The supplement of paper PMC13380429

Key:
[1] = system: A549-ACE2 infected with SARS-CoV-2; test: cell count relative to DMSO; higher = less toxic; conditions: 24 h
Caco-2 [2] = test: cell viability relative to DMSO; higher = less toxic; conditions: 72 h
Calu-3 [3] = test: as above; conditions: 72 h
HepG2 [4] = test: as above; conditions: 72 h
U2OS [5] = test: as above; conditions: 72 h
Vero E6 [6] = test: as above; conditions: 72 h
[7] = system: A549-ACE2 infected with SARS-CoV-2; test: SARS-CoV-2 infection rate relative to DMSO; higher = more infection; conditions: 24 h
A549-ACE2 [8] = test: phospholipidosis EC50; higher = less potent phospholipidosis inducer
A549-ACE2 [9] = test: drug-induced phospholipidosis relative to tamoxifen; higher = more phospholipidosis
[10] = system: A549-ACE2 infected with SARS-CoV-2; test: morphology score (similarity to uninfected cells); higher = more like uninfected cells; conditions: 24 h
Calu-3 [11] = test: relative viability EC50 (midpoint between 100% and the lowest measured viability); higher = less toxic; conditions: 72 h
U2OS [12] = test: as above; conditions: 72 h
Vero E6 [13] = test: as above; conditions: 72 h
Caco-2 [14] = test: drug sensitivity score (DSS) for viability; higher = more toxic; extreme values may be limits of the assay; conditions: 72 h
Calu-3 [15] = test: as above; conditions: 72 h
HepG2 [16] = test: as above; conditions: 72 h
U2OS [17] = test: as above; conditions: 72 h
Vero E6 [18] = test: as above; conditions: 72 h
Caco-2 [19] = test: relative viability EC50 (midpoint between 100% and the lowest measured viability); higher = less toxic; conditions: 72 h
HepG2 [20] = test: as above; conditions: 72 h

CCCCCCCCNC(=O)/C(C#N)=C/c1cn(CCCN(C)C)c2ccccc12 [dynole-34-2]
Conditions	SARS-CoV-2 infection rate [%]	cell count [%]	cell viability [%]	morphology score	phospholipidosis EC50 [µM]
A549-ACE2 [8], 24 h	–	–	–	–	0.825
A549-ACE2 [8], 48 h	–	–	–	–	3.88
A549-ACE2 [8], 72 h	–	–	–	–	6.62
Caco-2 [2], 1 nM	–	–	97.3	–	–
Caco-2 [2], 10 nM	–	–	100	–	–
Caco-2 [2], 100 nM	–	–	103	–	–
Caco-2 [2], 1000 nM	–	–	95.5	–	–
Caco-2 [2], 10000 nM	–	–	63.9	–	–
Calu-3 [3], 1 nM	–	–	98.3	–	–
Calu-3 [3], 10 nM	–	–	96.7	–	–
Calu-3 [3], 100 nM	–	–	105	–	–
Calu-3 [3], 1000 nM	–	–	93.1	–	–
Calu-3 [3], 10000 nM	–	–	-0.1	–	–
HepG2 [4], 1 nM	–	–	96.5	–	–
HepG2 [4], 10 nM	–	–	93.4	–	–
HepG2 [4], 100 nM	–	–	97.9	–	–
HepG2 [4], 1000 nM	–	–	95.8	–	–
HepG2 [4], 10000 nM	–	–	62	–	–
U2OS [5], 1 nM	–	–	104	–	–
U2OS [5], 10 nM	–	–	104	–	–
U2OS [5], 100 nM	–	–	99	–	–
U2OS [5], 1000 nM	–	–	102	–	–
U2OS [5], 10000 nM	–	–	5.2	–	–
Vero E6 [6], 1 nM	–	–	104	–	–
Vero E6 [6], 10 nM	–	–	102	–	–
Vero E6 [6], 100 nM	–	–	102	–	–
Vero E6 [6], 1000 nM	–	–	98.6	–	–
Vero E6 [6], 10000 nM	–	–	91.2	–	–
[1], 0.3 µM	–	97	–	–	–
[7], 0.3 µM	105	–	–	–	–
[10], 0.3 µM	–	–	–	-0.05	–

drug-induced phospholipidosis [%], A549-ACE2 [9]
Conditions	0.3 µM	0.833333 µM	3.33333 µM	6.66667 µM	10 µM
24 h	1.06	56.4	87.1	96.8	112
48 h	1.92	50.3	46.7	92	119
72 h	2.02	41.5	27.6	81.2	120

Conditions	drug sensitivity score	relative viability EC50 [µM]
Caco-2 [14]	2.5	–
Calu-3 [11]	–	2.61
Calu-3 [15]	6.6	–
HepG2 [16]	2.6	–
U2OS [12]	–	3.29
U2OS [17]	5.1	–
Vero E6 [13]	–	> 10
Vero E6 [18]	0	–

Cc1[nH]cnc1-c1ccc(Cl)cc1 [lofemizole]
Conditions	SARS-CoV-2 infection rate, [7] [%]	cell count, [1] [%]	cell viability, Caco-2 [2] [%]	cell viability, HepG2 [4] [%]	cell viability, U2OS [5] [%]	cell viability, Vero E6 [6] [%]	morphology score, [10]
1 nM	–	–	98.4	99.4	95.9	103	–
10 nM	–	–	94.9	102	97.2	97	–
100 nM	–	–	95.2	105	97.5	96.5	–
0.3 µM	94	97	–	–	–	–	0.05
1000 nM	–	–	98.7	93	99.2	96.7	–
3 µM	104	102	–	–	–	–	0.07
10 µM	105	100	–	–	–	–	-0.16
10000 nM	–	–	101	107	103	102	–
30 µM	100	94	–	–	–	–	-0.13

drug-induced phospholipidosis [%], A549-ACE2 [9]
Conditions	0.3 µM	0.833333 µM	3.33333 µM	6.66667 µM	10 µM	30 µM
24 h	3.89	-1.13	0.51	-0.91	0.71	5.39
48 h	4.07	0.92	2.92	3.98	3.67	11.9
72 h	4.05	0.285	0.756	2.05	2.84	12.6

Conditions	drug sensitivity score	relative viability EC50 [µM]
Caco-2 [14]	0	–
Caco-2 [19]	–	> 10
HepG2 [16]	0	–
HepG2 [20]	–	> 10
U2OS [12]	–	> 10
U2OS [17]	0	–
Vero E6 [13]	–	> 10
Vero E6 [18]	0	–

Cc1c(O)cccc1C(=O)N[C@@H](CSc1ccccc1)[C@H](O)CN1C[C@H]2CCCC[C@H]2C[C@H]1C(=O)NC(C)(C)C [nelfinavir]
Conditions	SARS-CoV-2 infection rate [%]	cell count [%]	cell viability [%]	morphology score	phospholipidosis EC50 [µM]
A549-ACE2 [8], 24 h	–	–	–	–	11.6
Caco-2 [2], 1 nM	–	–	104	–	–
Caco-2 [2], 10 nM	–	–	93.4	–	–
Caco-2 [2], 100 nM	–	–	95.1	–	–
Caco-2 [2], 1000 nM	–	–	70.1	–	–
Caco-2 [2], 10000 nM	–	–	78.7	–	–
Calu-3 [3], 1 nM	–	–	101	–	–
Calu-3 [3], 10 nM	–	–	87.1	–	–
Calu-3 [3], 100 nM	–	–	137	–	–
Calu-3 [3], 1000 nM	–	–	109	–	–
Calu-3 [3], 10000 nM	–	–	86.7	–	–
HepG2 [4], 1 nM	–	–	107	–	–
HepG2 [4], 10 nM	–	–	96.7	–	–
HepG2 [4], 100 nM	–	–	89.5	–	–
HepG2 [4], 1000 nM	–	–	90.2	–	–
HepG2 [4], 10000 nM	–	–	76.4	–	–
U2OS [5], 1 nM	–	–	98.2	–	–
U2OS [5], 10 nM	–	–	92.5	–	–
U2OS [5], 100 nM	–	–	96.8	–	–
U2OS [5], 1000 nM	–	–	93.5	–	–
U2OS [5], 10000 nM	–	–	86.9	–	–
Vero E6 [6], 1 nM	–	–	105	–	–
Vero E6 [6], 10 nM	–	–	99.7	–	–
Vero E6 [6], 100 nM	–	–	88.6	–	–
Vero E6 [6], 1000 nM	–	–	97.3	–	–
Vero E6 [6], 10000 nM	–	–	93.6	–	–
[1], 0.3 µM	–	104	–	–	–
[1], 3 µM	–	96	–	–	–
[1], 10 µM	–	113	–	–	–
[1], 30 µM	–	97	–	–	–
[7], 0.3 µM	95	–	–	–	–
[7], 3 µM	102	–	–	–	–
[7], 10 µM	69	–	–	–	–
[7], 30 µM	10	–	–	–	–
[10], 0.3 µM	–	–	–	0.27	–
[10], 3 µM	–	–	–	0.2	–
[10], 10 µM	–	–	–	0.69	–
[10], 30 µM	–	–	–	0.42	–

drug-induced phospholipidosis [%], A549-ACE2 [9]
Conditions	0.3 µM	0.833333 µM	3.33333 µM	6.66667 µM	10 µM	30 µM
24 h	1.63	2.14	9.03	22.8	35.3	64.7
48 h	1.06	-2.76	10.6	21.3	40.6	–
72 h	1.29	-2.99	4.63	19.4	37	–

Conditions	drug sensitivity score	relative viability EC50 [µM]
Caco-2 [14]	5.8	–
Calu-3 [11]	–	> 10
Calu-3 [15]	0	–
HepG2 [16]	1.8	–
HepG2 [20]	–	> 10
U2OS [12]	–	> 10
U2OS [17]	0	–
Vero E6 [13]	–	> 10
Vero E6 [18]	0	–
